According to patent US5298494A, “Monosaccharides having anti-proliferation and anti-inflammatory activity, compositions and uses thereof” (Greenwich Pharmaceuticals Incorporated, priority 1993, dated 1994):
Entries after “also recorded” stand apart in the source; their conditions may differ.

Legend:
[1] = tested on: PGE2 production by BUD-8 skin cell fibroblasts; assay: PGE2 production by BUD-8 skin cell fibroblasts (radioimmunoassay); format: cell-based, human
Description: (§1) The effect of the compound of the present invention on the proliferative capacity of human BUD-8 skin fibroblasts was measured with the use of a ^3 H-thymidine incorporation assay using culture conditions which were similar to those used for a Con-A blastogenesis assay, described previously. Cultured skin cells were detached from the surface of tissue culture flasks mechanically with a Teflon scraper. The cells were washed, resuspended in incubation medium and the viabilities were determined. These cells were then plated in triplicate at a density of 2×10^3 cells/0.1 ml/microtiter well for the proliferation assay and a density of 1×10^4 cells/0.1 ml/microtiter well for the assays to quantitate PGE2 and LTB4. To these cells was added incubation medium containing indomethacin to inhibit prostaglandin production, or nordihydroguaiaretic acid (NDGA) to inhibit leukotriene production (positive controls).
After 18 hours of culture, samples of the BUD-8 skin cell supernatants were collected from one set of microtiter plates and frozen until assayed for PGE2 or for LTB4 content using the radioimmunoassays described below.
A radioinmunoassay (New England Nuclear) was used to quantitate PGE2 levels in BUD-8 skin cell culture supernatants. Briefly, into each polypropylene tube were mixed 0.1 ml anti-PGE2, 0.1 ml ^125 1-PGE2 and 0.1 ml PGE2 standard or PGE2 containing sample. The BUD-8 skin culture supernatants were diluted 1:2 prior to addition to the radioimmunoassay. Tubes were refrigerated overnight. A polyethylene glycol solution (16%, 6,000 m.w.) was then added to precipitate immune complexes and the radioactivity in the precipitate was counted in a gamma counter.

[2] = tested on: BUD-8 human skin fibroblasts; assay: Fibroblast assay: proliferation of BUD-8 skin cell fibroblasts; format: cell-based
Description: The human skin cell fibroblast line, BUD-8 was obtained prior to each assay from the American Type Culture Collection. This is a fibroblast-like cell line which was originally derived from the normal skin of a person.
BUD-8 cell cultures were expanded for use in 25 cm^2 flasks at 37° C. in an atmosphere of 5% CO2 in air. At approximately 4-5 five day intervals, or when confluence was reached, the cells were passaged. This was accomplished by detaching the cells with a Teflon scraper, washing and reseeding the cells at a lower density into fresh tissue culture flasks.
as §1
(§2) After 3 days of culture, 1 uCi ^3 H-thymidine was added in a 50 ul volume to each culture well of the microtiter plates. Eighteen hours later, each of the BUD-8 cultures was examined morphologically for evidence of compound-induced toxicity such as cell rounding or granularity. The thymidine-pulsed cells were then precipitated and the amount of ^3 H-thymidine incorporated was counted in a liquid scintillation counter.
The concentrations of the compounds of the invention which were used in these assays were:
The incubation medium used for culturing the BUD-8 cells was RPMI-1640 medium containing 10% fetal bovine serum, 100 ug/ml streptomycin, 100 U/ml penicillin, 0.2M Hepes buffer solution, 5×10^-5 M 2-mercaptoethanol and 2 mM glutamine.

BUD-8 skin cells = assay: Morphological examination of BUD-8 cultures for compound-induced toxicity; format: cell-based, human
Description: as §2

CCCCCCCOCCCO[C@@H]1[C@H]2OC(C)(C)O[C@H]2O[C@@H]1[C@H](O)CO [IIg]
PGE2 in supernatant ([1]; 1 ug/ml): 5.2 ± 0.9 pg PGE2 /50 ul supernatant
calculated PGE2 produced/10^5 BUD-8 cells ([1]; 1 ug/ml): 157 pg per 10^5 cells
PGE2 in supernatant ([1]; 10 ug/ml): 5.6 ± 0.4 pg PGE2 /50 ul supernatant
calculated PGE2 produced/10^5 BUD-8 cells ([1]; 10 ug/ml): 173 pg per 10^5 cells
PGE2 in supernatant ([1]; 25 ug/ml): 4.1 ± 0.3 pg PGE2 /50 ul supernatant
calculated PGE2 produced/10^5 BUD-8 cells ([1]; 25 ug/ml): 111 pg per 10^5 cells
PGE2 in supernatant ([1]; 100 ug/ml): 11.0 ± 1.4 pg PGE2 /50 ul supernatant
calculated PGE2 produced/10^5 BUD-8 cells ([1]; 100 ug/ml): 388 pg per 10^5 cells
PGE2 in supernatant ([1]; 300 ug/ml): 19.6 ± 1.6 pg PGE2 /50 ul supernatant
calculated PGE2 produced/10^5 BUD-8 cells ([1]; 300 ug/ml): 731 pg per 10^5 cells
PGE2 in supernatant ([1]; 750 ug/ml): 7.3 ± 0.2 pg PGE2 /50 ul supernatant
calculated PGE2 produced/10^5 BUD-8 cells ([1]; 750 ug/ml): 241 pg per 10^5 cells
inhibition at 1 µg/mL ([1]; Homo sapiens, Fibroblast, 18 h, 1 ug/ml, read-out: % Effect on PGE2 production): 45%
inhibition at 10 µg/mL ([1]; Homo sapiens, Fibroblast, 18 h, 10 ug/ml, read-out: % Effect on PGE2 production): 40%
inhibition at 25 µg/mL ([1]; Homo sapiens, Fibroblast, 18 h, 25 ug/ml, read-out: % Effect on PGE2 production): 57%
inhibition at 100 µg/mL ([1]; Homo sapiens, Fibroblast, 18 h, 100 ug/ml, read-out: % Effect on PGE2 production): -17%
inhibition at 300 µg/mL ([1]; Homo sapiens, Fibroblast, 18 h, 300 ug/ml, read-out: % Effect on PGE2 production): -108%
inhibition at 750 µg/mL ([1]; Homo sapiens, Fibroblast, 18 h, 750 ug/ml, read-out: % Effect on PGE2 production): 22%
^3 H-Thymidine uptake by BUD-8 skin cells ([2]; 1 ug/ml): 6,096 ± 1,352 cpm
^3 H-Thymidine uptake by BUD-8 skin cells ([2]; 10 ug/ml): 3,552 ± 994 cpm
^3 H-Thymidine uptake by BUD-8 skin cells ([2]; 25 ug/ml): 4,207 ± 450 cpm
^3 H-Thymidine uptake by BUD-8 skin cells ([2]; 100 ug/ml): 4,117 ± 481 cpm
^3 H-Thymidine uptake by BUD-8 skin cells ([2]; 300 ug/ml): 2,233 ± 244 cpm
^3 H-Thymidine uptake by BUD-8 skin cells ([2]; 750 ug/ml): 3,898 ± 1,692 cpm
inhibition at 1 µg/mL ([2]; Homo sapiens, Skin fibroblast, 1 ug/ml, read-out: % Effect on BUD-8 proliferation): 1%
inhibition at 10 µg/mL ([2]; Homo sapiens, Skin fibroblast, 10 ug/ml, read-out: % Effect on BUD-8 proliferation): 42%
inhibition at 25 µg/mL ([2]; Homo sapiens, Skin fibroblast, 25 ug/ml, read-out: % Effect on BUD-8 proliferation): 32%
inhibition at 100 µg/mL ([2]; Homo sapiens, Skin fibroblast, 100 ug/ml, read-out: % Effect on BUD-8 proliferation): 33%
inhibition at 300 µg/mL ([2]; Homo sapiens, Skin fibroblast, 300 ug/ml, read-out: % Effect on BUD-8 proliferation): 64%
inhibition at 750 µg/mL ([2]; Homo sapiens, Skin fibroblast, 750 ug/ml, read-out: % Effect on BUD-8 proliferation): 37%
cell toxicity in BUD-8 cultures, in words (BUD-8 skin cells): Evidence of cell toxicity was observed at the two highest concentrations of compound tested; also recorded: Cell toxicity was again observed in cultures which included 300 and 750 ug/ml of the compound; also recorded: Compound induced cell toxicity was observed only at the highest dose level tested
